Patent US20230330059A1, “3-PHENYL-2H-CHROMENE DERIVATIVE AND PHARMACEUTICAL COMPOSITION FOR PREVENTING OR TREATING ALZHEIMER'S, CONTAINING SAME” (NEUROBIONET, INC., priority 2020, published 2023)
Read-outs that look alike come from different tables or passages of the source.

Experiments:
[1] = system: NGF release in C6 cells; test: Nerve growth factor (NGF) release in C6 cells (ELISA); assay type: cell-based, rat; details: 5 µM, 24 hours, compared to the normal group, FIG. 13
Procedure: C6 cells were seeded at a density of 4x10^5 cells/well into 96-well plates and stabilized for 24 hours. Thereafter, the cells were treated with 5 µM of daidzein, o-desmethylangolensin, S-equal, SPA1413, or SPA1426 for 24 hours. The culture medium was collected and quantitatively measured for NGF released to the C6 culture supernatant using the enzyme immunoassay method Competitive Enzyme-Linked Immuno Assay (ELISA) kit (R&D systems, Minneapolis, MN, USA). The NGF releases from the groups treated with the samples were evaluated relative to that from the normal group, which was set to be 100%, and the results are depicted in FIG. 13.

[2] = system: N2a cells; test: Neurite outgrowth in N2a cells (Incucyte); assay type: cell-based, mouse; details: 5 µM, FIGS. 14a and 14b
Procedure: N2a cells were aliquoted at a density of 1x10^4 cells/well into 24-well plates, treated with daidzein, o-desmethylangolensin, S-equal, SPA1413 and SPA1426 at 5 µM, and evaluated for neurite outgrowth by the real-time cell monitoring system InCucyte. The cells were photographed every 2 hours, and the neurites were counted through Incucyte software.

[3] = system: p38; test: p38 protein expression (western blot) in LPS-treated BV2 cells; assay type: cell-based, mouse; details: 5 µM, compared to the LPS-treated group, FIG. 12b
Procedure: (§1) BV2 cells were aliquoted at a density of 1x10^6 cells/well into 60 mm dishes and stabilized for 24 hours. Thereafter, the cells were treated with 5 µM of S-equal, SPA1413, or SPA1426 for 30 minutes and then with LPS (100 ng/ml) for 24 hours at 37° C. After being cultured to reach 100% confluence, the cells were washed with PBS and lysed with a lysis buffer (PRO-PREP™ Protein Extraction Solution, Intron Biotechnology, Seongnam, Korea). With bovine serum albumin (BSA) serving as a standard, the protein contents of the lysate supernatants were measured by Bio-Rad Protein Assay (Bio-Rad, California, USA) to determine the total protein content in each sample. Afterwards, each of the samples was loaded in a protein amount of 30 µg on a 10-12% SDS-PAGE gel and run for electrophoresis. The electrophorized proteins were transferred to a PVDF membrane which was then blocked with 5% skim milk and incubated with antibodies to JNK or p38 (Cell Signaling Technologies, Massachusetts, USA). Detection was conducted with a ChemiDoc XRS+ imaging system (Bio-Rad, CA, USA).

[4] = system: nitric oxide production in LPS-treated BV2 cells; test: Nitric oxide production (Griess) in LPS-treated BV2 cells; assay type: cell-based, mouse; details: for NO production: LPS-treated BV2 cells, FIG. 4 (lower), 8a; for IC50: Mus musculus, read-out: IC50 (NO production)
Procedure: BV2 cells were seeded at a density of 4 x 10^5 cells/well into 96-well plates, and primary microglial cells isolated from the brain of […] ICR mice were seeded at a density of 4 x 10^5 cells/well into 24-well plates.
The culture media were collected and measured for NO production using a Griess reagent solution (1% sulfanilamide and 0.1% N-1-naphthyl ethylenediamine dihydrochloride in 5% phosphoric acid). Briefly, a total of 50 µL of the supernatant was transferred to new 96-well plates and mixed with the same volume of the Griess reagent solution, followed by measuring OD at 570 nm. In addition, the cell viability was assayed in the same manner as in Experimental Example 2.

[5] = target: MGO-AGEs (Bos taurus, UniProt P02769); test: Breaking of MGO-induced advanced glycation end products (TNBSA free amine); assay type: biochemical
Procedure: Bovine serum albumin (BSA) was stored at 37° C. for 7 days in mixture with methylglyoxal (MGO) and sodium azide) to prepare AGEs. The AGEs derived from MGO are referred to as “MGO-AGEs”. MGO-AGEs with a concentration of 1 mg/ml were treated for 24 hours with various concentrations (0.1, 0.2, and 0.4 mM) of SPA1413. As a positive control, aminoguanidine (AG), known as an AGE inhibitor, was used. MGO-AGEs were reacted with 2,4,6-trinitrobenzene sulfonic acid (TNBSA) and 4% sodium bicarbonate, followed by adding 10% sodium dodecyl sulfate and 1 N HCl to terminate the reaction. Absorbance was read at 335 nm accounting for free amines, which resulted from the breaking degradation of AGEs, in a microplate to evaluate the efficacy of degrading AGEs.

[6] = system: JNK; test: JNK protein expression (western blot) in LPS-treated BV2 cells; assay type: cell-based, mouse; details: 5 µM, compared to the LPS-treated group, FIG. 12a
Procedure: as §1

[7] = target: T1, Aβ42 (Homo sapiens, UniProt P05067); test: Thioflavin T (ThT) assay of Aβ fibrosis; assay type: biochemical; details: ThT fluorescence, 37° C., 180 minutes; compared to negative control and Daidzein or Equol; FIG. 1
T1 construct: 1,1,1,3,3,3-hexafluoro-2-propanol-treated Aβ42 (# A-1163-1, rPeptide); purchased rPeptide A-1163-1
Procedure: ThT assay was used to examine whether the drugs have an inhibitory activity against the fibrosis of Aβ. Lyophilized AggreSure AβAS-72216, AnaSpec) was dissolved in cold Tris buffered saline (TBS; pH 7.2) to prepare a 160 µg/mL Aβ solution. The solution was aliquoted into 1.5 mL tubes and stored at -80° C. until use. ThT (# T3516, Sigma-Aldrich) and drug candidates were dissolved in TBS to form a final concentration of 500 µM. The diluted aggregates were added to […] black plates (Nunc # 242764), mixed with ThT and drug candidates, and incubated at 37° C. for 180 minutes. Fluorescence signals were measured every 5 minutes using a plate reader (Victor3, PerkinElmer).

[8] = system: TNF-a; test: TNF-a production (ELISA) in LPS-treated BV2 cells; assay type: cell-based, mouse; details: 5 µM, LPS (100 ng/ml) 24 hours, FIG. 10b
Procedure: BV2 cells were seeded at a density of 4x10^5 cells/well into 96-well plates and stabilized for 24 hours. Thereafter, the cells were treated with 5 µM of daidzein, o-desmethylangolensin, S-equal, SPA1413, or SPA1426 for 30 minutes and then with LPS (100 ng/ml) for 24 hours at 37° C. The culture medium was collected and quantitatively measured for IL-6 and TNF-a released to the BV2 culture supernatant, using the enzyme immunoassay method […] Enzyme-Linked Immuno Assay (ELISA) kit (R&D systems, Minneapolis, MN, USA). The IL-6 and TNF-a releases from the groups treated with the samples were evaluated relative to that from the LPS-treated group, which was set to be 100%, and the results are depicted in FIGS. 10a and 10b.

T1 sequence (P05067 672-713 limits assumed): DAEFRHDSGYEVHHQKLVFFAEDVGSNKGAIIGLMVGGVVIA
Sequence of MGO-AGEs (P02769 25-607): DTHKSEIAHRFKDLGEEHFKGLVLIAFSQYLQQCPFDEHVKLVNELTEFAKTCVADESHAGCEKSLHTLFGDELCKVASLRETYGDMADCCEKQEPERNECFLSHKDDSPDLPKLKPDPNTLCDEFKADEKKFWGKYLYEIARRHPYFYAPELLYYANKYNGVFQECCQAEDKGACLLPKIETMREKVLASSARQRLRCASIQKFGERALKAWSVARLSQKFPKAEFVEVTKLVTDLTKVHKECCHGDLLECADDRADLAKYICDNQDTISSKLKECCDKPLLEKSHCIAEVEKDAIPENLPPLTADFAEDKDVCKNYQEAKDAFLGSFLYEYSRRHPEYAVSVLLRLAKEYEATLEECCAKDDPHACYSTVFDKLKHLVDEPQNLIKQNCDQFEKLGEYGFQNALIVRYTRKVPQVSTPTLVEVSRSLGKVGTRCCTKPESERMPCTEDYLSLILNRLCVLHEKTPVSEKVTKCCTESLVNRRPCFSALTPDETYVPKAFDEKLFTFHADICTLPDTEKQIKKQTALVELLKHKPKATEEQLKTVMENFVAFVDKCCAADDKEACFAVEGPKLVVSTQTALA

IC50 ([4]; BV-2, LPS (100 ng/ml) 24 hours, Griess reagent, cell type not stated in Table 1)	free amines from breaking of MGO-AGEs, compared to SPA1413 ([5]; FIG. 19)	Structure (SMILES)	NGF content [1]	neurite outgrowth [2]	expression level of P38 protein [3]	NO production [4]	IC50 ([4]; BV-2, 24 h)	free amines from breaking of MGO-AGEs, compared to the negative control (MGO-AGEs) ([5]; 0.1, 0.2 and 0.4 mM, 24 hours, MGO-AGEs 1 mg/ml, FIG. 18)	expression level of JNK protein [6]	inhibition of Aβ42 fibrosis [7]	TNF-a production [8]
–	–	Oc1ccc(C2=Cc3ccc(O)cc3OC2)cc1 [SPA1413, 3-(4-Hydroxyphenyl)-2H-chromen-7-ol]	significantly increased	significantly increased	decreased	decreased NO production in dose-dependent manners	5.2 µM	increased levels of free amines	decreased	showed the effect of inhibiting Aβ42 fibrosis	significantly decreased
3.67 µM	higher levels of free amines	CCCC(=O)Oc1ccc(C2=Cc3ccc(OC(=O)CCC)cc3OC2)cc1 [SPA1426, 4-(7-(butyryloxy)-2H-chromen-3-yl)phenyl butyrate]	significantly increased	significantly increased	decreased	decreased NO production in dose-dependent manners	–	–	decreased	showed the effect of inhibiting Aβ42 fibrosis	significantly decreased
